Assay results as given in US20260115170A1, “Method of Ameliorating a Symptom or a Disease in a Human Caused by Fungus” (ISHIHARA SANGYO KAISHA, LTD., priority 2020, published 2026).
≈ marks a conversion by molar mass, not a printed value.

Tests used:
Type in all cases: cell-based
[1] = test system: Trichophyton rubrum (ATCCMYA4607); experiment: Test Example 5 antifungal activity test, minimum fungicidal concentration (MFC100) by treatment time
Experimental: (§1) Test Microbial Strains: Trichophyton rubrum (ATCCMYA4607), and Microsporum canis (IFM63627)
(§2) Trichophyton rubrum was cultured in a Sabouraud medium and Microsporum canis was cultured in a 1/10 Sabouraud medium, at 32° C. for 168 hours to form spores. For Trichophyton rubrum, hyphae were peeled off from the surface of the medium and recovered in a tube, physiological saline (Otsuka Normal Saline; containing 9 g of sodium chloride in 1000 mL) was added, these were wholly admixed using a disposable loop (type 1 (1 μL)) for dispersion, and a spore suspension containing the hyphae was recovered. For Microsporum canis, 10 mL of physiological saline was added directly onto the medium, and the surface was rubbed using a disposable loop to recover a spore suspension containing hyphae. The spore suspensions containing the hyphae of Trichophyton rubrum and Microsporum canis, respectively, were filtered through a cell strainer (\40 μm). The spores were recovered from the filtrate by centrifugation (3500 rpm, 5 minutes) and washed twice with physiological saline, and then a spore suspension was prepared (1×10^7 spores/mL). 10 μL of the spore suspension was inoculated into 90 μL of physiological saline to which test compound dissolved in DMSO was added to have a predetermined concentration. Every time a predetermined time elapsed, 10 μL of a test liquid containing the spores was collected, the spores were recovered by centrifugation (3500 rpm, 5 minutes) and washed twice with physiological saline, and then a 10 μL spore suspension was prepared. The 10 μL spore suspension was spotted onto a Sabouraud medium and subjected to culturing at 32° C. for 72 hours, the presence or absence of colony growth was investigated, and the minimum fungicidal concentration (MFC100) was determined.

[2] = test system: Microsporum canis (IFM63627); experiment: as above
Experimental: as §1, §2

[3] = test system: Malassezia sympodialis (IFM 48588); experiment: Test Example 3-1 antifungal activity test, minimum fungicidal concentration after 1 minute; details: 1 minute contact, CHROMagar medium, 32° C. for 72 hours, read-out: Minimum fungicidal concentration (MFC100)
Experimental: (§3) Test Microbial Strains: Malassezia furfur (IFM 55951), Malassezia sympodialis (IFM 48588), and Malassezia globosa (IFM 51946) The Malassezia microbe (Malassezia furfur, Malassezia sympodialis, or Malassezia globosa) cultured in a CHROMagar™ Malassezia/Candida Prepared medium (peptone, special enzyme substrate mixture, chloramphenicol, olive oil, agar, manufactured by Kanto Chemical Co., Inc.) for 5 to 7 days was suspended in physiological saline, and a suspension thereof was prepared in such a way as to have an absorbance of 0.025 at 600 nm. Thereto, the test compound dissolved in DMSO was added in such a way as to provide a final concentration of 200, 100, 50, or 25 ppm, and after 1 minute, 10 μL of the suspension and 10 mL of physiological saline were placed in a syringe and stirred, and the syringe was connected to a 37 mm Quality Monitor (manufactured by Pall Corporation) followed by filtration and washing twice with 10 mL of physiological saline. The membrane filter was removed from the Quality Monitor, placed on a CHROMagar™ Malassezial Candida Prepared medium, and was subjected to culturing at 32° C. for 72 hours, the presence or absence of colony growth was investigated, and the minimum fungicidal concentration (MFC100) was determined.

[4] = test system: Malassezia furfur (IFM 55951); experiment: as above; details: 1 minute contact, CHROMagar medium, 32° C. for 72 hours, read-out: Minimum fungicidal concentration (MFC100)
Experimental: as §3

[5] = test system: Malassezia globosa (IFM 51946); experiment: as above; details: 1 minute contact, CHROMagar medium, 32° C. for 72 hours, read-out: Minimum fungicidal concentration (MFC100)
Experimental: as §3

Cc1ccc(-c2nc(C#N)[nH]c2Cl)cc1Cl [Compound No. 6, 5-Chloro-4-(3-chloro-4-methylphenyl)-1H-imidazole-2-carbonitrile]
MFC ([1]; Treatment time 1 Hour): 50 µg/mL (≈ 198 µM) | MFC ([1]; Treatment time 48 Hours): 10 µg/mL (≈ 39.7 µM) | MFC ([1]; Treatment time 72 Hours): 5 µg/mL (≈ 19.8 µM) | MFC ([2]; Treatment time 24 Hours): 50 µg/mL (≈ 198 µM) | MFC ([2]; Treatment time 96 Hours): 10 µg/mL (≈ 39.7 µM) | MFC [3]: 50 µg/mL (≈ 198 µM) | MFC [4]: 50 µg/mL (≈ 198 µM) | MFC [5]: 50 µg/mL (≈ 198 µM)
